Results: patent US10124004B2, “Pyrido[3,4-d]pyrimidine derivative and pharmaceutically acceptable salt thereof” (Teijin Pharma Limited, priority 2015, dated 2018)
Read-outs that look alike come from different tables or passages of the source.

Experiments:
CDK4/cyclin D3 = target: T1, CDK4/cyclin D3 (Homo sapiens, UniProt P11802); assay: Human CDK4/cyclin D3 inhibitory activity (QS S Assist CDK4/Cyclin D3_FP Kit, IMAP fluorescence polarization); type: biochemical
T1 construct: purchased Carna Biosciences, Inc. QS S Assist CDK4/Cyclin D3_FP Kit
Outline: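 IMAP fluorescence polarization kit: CDK4/cyclin D3 at 12.5-25 ng/well with kit ATP/substrate/metal mix in 20 mM HEPES pH 7.4, 0.01% Tween20, 2 mM DTT, 45 min at room temperature. FP read at 485/535 nm after 30 min binding; IC50 from dose-response fit of percent inhibition versus enzyme and no-enzyme controls.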

CDK2/cyclin A2 = target: T2, CDK2/cyclin A2 (Homo sapiens, UniProt P24941); assay: Human CDK2/cyclin A2 inhibitory activity (QS S Assist CDK2/Cyclin A2_FP Kit, IMAP fluorescence polarization); type: biochemical
T2 construct: purchased Carna Biosciences, Inc. QS S Assist CDK2/Cyclin A2_FP Kit
Outline: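 Kinase activity read as fluorescence polarization (485/535 nm) after phosphorylated fluorescent substrate binds IMAP reagent (30 min, RT, dark). Enzyme (2.5 ng/well) reacted 60 min at RT with ATP/substrate/metal in HEPES pH 7.4 buffer with Tween 20 and DTT; no-enzyme wells define 0% activity; IC50 by curve fit.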

[1] = 50% inhibitory concentration against CDK4/cyclin D3, given as class symbol
[2] = 50% inhibitory concentration against CDK2/cyclin A2, given as class symbol
[3] = Human CDK4/cyclin D3 inhibitory activity, read-out: CDK4 Activity symbol
[4] = Human CDK2/cyclin A2 inhibitory activity, read-out: CDK2 Activity symbol

T1 sequence (P11802 whole entry): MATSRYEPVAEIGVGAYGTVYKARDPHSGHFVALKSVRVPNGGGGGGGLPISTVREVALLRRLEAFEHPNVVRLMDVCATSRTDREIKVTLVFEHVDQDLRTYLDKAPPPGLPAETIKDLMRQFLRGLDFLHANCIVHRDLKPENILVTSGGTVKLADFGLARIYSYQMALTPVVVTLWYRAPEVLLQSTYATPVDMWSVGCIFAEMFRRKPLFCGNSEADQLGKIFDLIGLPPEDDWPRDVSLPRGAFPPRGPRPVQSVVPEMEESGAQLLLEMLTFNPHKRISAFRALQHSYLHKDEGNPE
T1 sequence (P30281 whole entry partner): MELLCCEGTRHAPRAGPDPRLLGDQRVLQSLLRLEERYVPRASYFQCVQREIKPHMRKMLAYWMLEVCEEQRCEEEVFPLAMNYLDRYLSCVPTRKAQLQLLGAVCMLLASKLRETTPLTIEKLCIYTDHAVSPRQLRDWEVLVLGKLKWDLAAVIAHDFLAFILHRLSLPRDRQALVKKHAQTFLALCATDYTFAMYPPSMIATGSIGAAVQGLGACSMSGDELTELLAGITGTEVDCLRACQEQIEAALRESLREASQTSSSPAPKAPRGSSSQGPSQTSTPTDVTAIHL

Row | SMILES | IC50 (CDK4/cyclin D3; [1]) [nM] | IC50 (CDK2/cyclin A2; [2]) [nM] | IC50 (CDK4/cyclin D3; [3]) [nM] | IC50 (CDK2/cyclin A2; [4]) [nM]
1 | CO[C@H](C)c1cc2cnc(Nc3ccc(N4CCNCC4)nn3)nc2c(NC2CCCC2)n1 [Compound 712] | < 10 | ≥ 100 | – | –
2 | CC(C)Nc1nc(C(F)F)cc2cnc(Nc3ccc(CN4CCC(C(=O)O)CC4)cn3)nc12 [Compound 129] | – | – | < 10 | 10 to 100
3 | CC(C)Nc1nc(C(F)F)cc2cnc(Nc3ccc(CN4CCC(O)CC4)cn3)nc12 [Compound 142] | – | – | < 10 | 10 to 100
4 | C[C@@H](O)c1cc2cnc(Nc3ccc(CN4CCC[C@@H](O)C4)cn3)nc2c(N[C@H]2CC[C@H](O)CC2)n1 [Compound 1187] | < 10 | ≥ 100 | – | –
5 | CCCN1CCN(Cc2ccc(Nc3ncc4cc([C@@H](C)OC)nc(NC(C)C)c4n3)nc2)CC1 [Compound 239] | – | – | < 10 | ≥ 100
6 | CNCCOc1ccc(Nc2ncc3cc(C(C)O)nc(NC4(C)CCCOC4)c3n2)nc1 (single isomer, unassigned) [Compound 869] | < 10 | 10 to 100 | – | –
7 | CCCNc1nc([C@@H](C)O)cc2cnc(Nc3ccc(CN4CCN(CCO)CC4)c(C)n3)nc12 [Compound 1047] | < 10 | ≥ 100 | – | –
8 | COC(C)c1cc2cnc(Nc3ccc(CN4CCNCC4)cn3)nc2c(SC(C)C)n1 (stereo not shown) [Compound 456] | – | – | < 10 | ≥ 100
9 | COCC(C)(C)Nc1nc([C@@H](C)O)cc2cnc(Nc3ccc(N4CCNCC4=O)cn3)nc12 [Compound 206] | – | – | < 10 | ≥ 100
10 | COC[C@@H](C)Nc1nc([C@@H](C)OC)cc2cnc(Nc3ccc(CN4CCN(CCO)CC4)cn3)nc12 [Compound 916] | < 10 | ≥ 100 | – | –
11 | C[C@@H](O)c1cc2cnc(Nc3ccc(CN4CCNCC4)cn3)nc2c(N[C@@H]2CCCOC2)n1 [Compound 257] | – | – | < 10 | ≥ 100
12 | COC[C@@H](C)Nc1nc([C@@H](C)O)cc2cnc(Nc3ccc(OCCN(C)C)cn3)nc12 [Compound 785] | < 10 | ≥ 100 | – | –
13 | CN(C)CCOC(=O)N1CCc2nc(Nc3ncc4cc(C5(C)COC5)nc(N[C@H]5CCCOC5)c4n3)ccc2C1 [Compound 1137] | < 10 | ≥ 100 | – | –
14 | CO[C@H](C)c1cc2cnc(Nc3ccc(CN4CCN(C(=O)C5CCCO5)CC4)cn3)nc2c(NC(C)C)n1 (stereo partly shown) [Compound 1157] | 10 to 100 | ≥ 100 | – | –
15 | COCCNCc1ccc(Nc2ncc3cc([C@@H](C)O)nc(NC(C)C)c3n2)nc1 [Compound 241] | – | – | < 10 | ≥ 100
16 | CC(C)Nc1nc(C(F)F)cc2cnc(Nc3ccc(C(=O)N4CCOCC4)cn3)nc12 [Compound 169] | – | – | < 10 | 10 to 100
17 | C[C@@H](O)c1cc2cnc(Nc3ccc(CN4CCC(O)CC4)cn3)nc2c(NCC2CCOCC2)n1 [Compound 1065] | < 10 | ≥ 100 | – | –
18 | CC(C)Nc1nc([C@@H](C)O)cc2cnc(Nc3ccc(C(=O)N4CCNC[C@@H]4C)cn3)nc12 [Compound 1166] | < 10 | ≥ 100 | – | –
19 | CO[C@H](C)c1cc2cnc(Nc3ccc(CN4CCNCC4)cn3)nc2c(N[C@@H]2CCOC2)n1 [Compound 303] | – | – | < 10 | ≥ 100
20 | CO[C@H](C)c1cc2cnc(Nc3ccc(N4CCCCC(N)C4=O)cn3)nc2c(NC(C)C)n1 (stereo partly shown) [Compound 553] | – | – | < 10 | ≥ 100
21 | CC(C)CNc1nc([C@@H](C)O)cc2cnc(Nc3ccc(CN4CCC[C@@H](O)C4)cn3)nc12 [Compound 1186] | < 10 | ≥ 100 | – | –
22 | CCNc1nc(C(F)F)cc2cnc(Nc3ccc(N4CCNCC4)cn3)nc12 [Compound 20] | – | – | < 10 | ≥ 100
23 | COCC(C)(C)Nc1nc([C@@H](C)O)cc2cnc(Nc3ccc(OCCN(C)C)cn3)nc12 [Compound 208] | – | – | < 10 | ≥ 100
24 | CCCNc1nc([C@@H](C)OC)cc2cnc(Nc3ccc(N4CCNCC4)cn3)nc12 [Compound 920] | < 10 | ≥ 100 | – | –
25 | CC(C)Nc1nc(C(F)F)cc2cnc(Nc3ccc(OCCCN4CCCC4=O)cn3)nc12 [Compound 123] | – | – | 10 to 100 | ≥ 100

Row | SMILES | IC50 (CDK4/cyclin D3; [1]) [nM] | IC50 (CDK2/cyclin A2; [2]) [nM] | IC50 (CDK4/cyclin D3; [3]) [nM] | IC50 (CDK2/cyclin A2; [4]) [nM]
26 | CC(C)Nc1nc(C(F)F)cc2cnc(Nc3ccccn3)nc12 [Compound 82] | – | – | 10 to 100 | ≥ 100
27 | CC(C)Nc1nc([C@@H](C)O)cc2cnc(Nc3ccc(CN4CCN(C(=O)C5CCOC5)CC4)cn3)nc12 (stereo partly shown) [Compound 1193] | < 10 | ≥ 100 | – | –
28 | CO[C@H](C)c1cc2cnc(Nc3ccc(CN4CCNCC4)cn3)nc2c(N[C@@H]2CCCOC2)n1 [Compound 301] | – | – | < 10 | ≥ 100
29 | CC(C)Nc1nc([C@@H](C)O)cc2cnc(Nc3ccc(C(=O)NCCN(C)C)cn3)nc12 [Compound 1164] | < 10 | ≥ 100 | – | –
30 | CC(O)c1cc2cnc(Nc3ccc(N4CCNCC4)cn3)nc2c(Nc2ccn[nH]2)n1 (stereo not shown) [Compound 27] | – | – | 10 to 100 | ≥ 100
31 | CC(C)Nc1nc(C(F)F)cc2cnc(Nc3ccc(CCCC(=O)O)cn3)nc12 [Compound 136] | – | – | 10 to 100 | ≥ 100
32 | CC(C)Nc1nc([C@@H](C)O)cc2cnc(Nc3ccc(N4CCCC(C(=O)O)C4)nn3)nc12 (stereo partly shown) [Compound 793] | 10 to 100 | ≥ 100 | – | –
33 | c1cc2c(nc1Nc1ncc3cc(C4CCOC4)nc(NC4CCCOC4)c3n1)CCNC2 (single isomer, unassigned) [Compound 943] | 10 to 100 | ≥ 100 | – | –
34 | COCCNc1nc(C(F)F)cc2cnc(Nc3ccc(N4CCNCC4)cn3)nc12 [Compound 15] | – | – | < 10 | ≥ 100
35 | O=C1CNCCN1Cc1ccc(Nc2ncc3cc(C(F)F)nc(N[C@H]4CCCOC4)c3n2)nc1 [Compound 856] | < 10 | ≥ 100 | – | –
36 | FC(F)c1cc2cnc(Nc3ccc(N4CCNCC4)cn3)nc2c(NC2CC2)n1 [Compound 18] | – | – | < 10 | ≥ 100
37 | CN(C)CCOc1ccc(Nc2ncc3cc(C(F)F)nc(N[C@H]4CCCOC4)c3n2)nc1 [Compound 382] | – | – | < 10 | ≥ 100
38 | CCCNc1nc([C@@H](C)OC)cc2cnc(Nc3ccc(N4CC5(CC(NC)C5)C4)cn3)nc12 [Compound 1008] | < 10 | ≥ 100 | – | –
39 | CC(C)Nc1nc([C@@H](C)O)cc2cnc(Nc3ccc(N4CCN[C@@H](C(C)C)C4=O)cn3)nc12 [Compound 765] | < 10 | ≥ 100 | – | –
40 | CC(O)c1cc2cnc(Nc3ccc(N4CCNCC4)cn3)nc2c(NC2CCC2)n1 (stereo not shown) [Compound 48] | – | – | < 10 | ≥ 100
41 | CC(C)Nc1nc(C(F)F)cc2cnc(Nc3ccc(CCCNS(C)(=O)=O)cn3)nc12 [Compound 153] | – | – | < 10 | 10 to 100
42 | CC(C)Nc1nc(C(F)F)cc2cnc(Nc3ccc(CN4CCNCC4=O)cn3)nc12 [Compound 205] | – | – | < 10 | 10 to 100
43 | C[C@@H](O)c1cc2cnc(Nc3ccc(OC[C@H]4CCCN4)cn3)nc2c(N[C@H]2CCCOC2)n1 [Compound 783] | < 10 | ≥ 100 | – | –
44 | CC(C)Nc1nc([C@@H](C)O)cc2cnc(Nc3ccc(CN4CCN(C[C@H](C)O)CC4)cn3)nc12 [Compound 674] | < 10 | ≥ 100 | – | –
45 | CC(C)Nc1nc(C2CCCO2)cc2cnc(Nc3ccc(N4CCNCC4)cn3)nc12 (stereo not shown) [Compound 992] | 10 to 100 | ≥ 100 | – | –
46 | CCNc1nc([C@@H](C)O)cc2cnc(Nc3ccc(N4CCN(C)CC4)nn3)nc12 [Compound 980] | < 10 | ≥ 100 | – | –
47 | CC(C)Nc1nc([C@@H](C)O)cc2cnc(Nc3ccc(N4CCN(CC(N)=O)CC4=O)cn3)nc12 [Compound 900] | < 10 | ≥ 100 | – | –
48 | CNC1CCN(c2ccc(Nc3ncc4cc(C(C)O)nc(NC(C)C)c4n3)nn2)CC1F (stereo not shown) [Compound 609] | – | – | < 10 | ≥ 100
49 | CC(C)Nc1nc([C@@H](C)O)cc2cnc(Nc3ccc(OCC(=O)N4CCNCC4)cn3)nc12 [Compound 559] | – | – | < 10 | ≥ 100
50 | CC(C)Nc1nc(C(F)F)cc2cnc(Nc3ccc(CN(C)S(C)(=O)=O)cn3)nc12 [Compound 141] | – | – | < 10 | ≥ 100
